Where two headings read alike, the source gives them in different places.
Experiments:
caspase-3 = experiment: Caspase-3 activating action of β-amyloid and its suppression (Ac-DEVD-AMC substrate); assay type: cell-based, rat; settings: FIG. 7
Description: PC12 cells that had been cultured almost similarly to Example 4 were cultured in a 24-well plate (2×10^5 cells/well). 10^−5 M β-amyloid was added to the plate. At this time, cAMP derivative (10^−4 M) and neuropeptide PACAP (10^−9 M) were added respectively, and then the action of activating caspase-3, an apoptosis-related enzyme, was examined. The caspase-3 activating action was examined using Ac-DEVD-AMC, a caspase-3 specific substrate. […] Further, by the addition of neuropeptide PACAP, an incomplete, approximately 50% suppressive effect was shown. […] Taking into consideration that this suppressive action is not complete, other action mechanisms may also be involved.

PC12 cells [1] = experiment: Neuroprotective action against β-amyloid, viable cell count / survival rate by WST-8 method; assay type: cell-based, rat; parameters: key to Neuroprotective action: +, P < 0.05 when compared with the no neuropeptide-added group; settings: for neuroprotective action against cell death by β-amyloid (cell survival rate): co-existing with β-amyloid, PACAP27 10^−9 M; for relationship between concentration and neuroprotective action against β-amyloid: neuropeptides at various concentrations
Description: An experiment was performed similarly to Example 5, and then the neuroprotective action against cell death by β-amyloid of the following PACAP-related neuropeptides (peptides 1, 2, 4, 5, 7, 8, 15, 16, 17, 19, 21, 26, 27, 28, 29, 30, 31, 32, 33, 34, 35, 36, 37, 38 and 39) and VIP-related neuropeptides (peptides 3, 9, 10, 11, 12, 13, 14, 18, 20, 22, 23, 24 and 25) was confirmed. Specifically, amyloid (50 μM) and each of the various PACAP-related neuropeptides and VIP-related neuropeptides were added to the cultured PC12 cells. The number of […] calculated by the WST-8 method, so that comparison and examination was performed for the neuroprotective action of these various peptides against amyloid. If the neuropeptides had neuroprotective action, a clear difference in viable cell count can be observed between cases in which neuropeptides were added and cases in which neuropeptides were not added. In PC12 cells added with each of the various neuropeptides, a case wherein a higher cell survival rate (P<0.05) was observed compared with groups in which neuropeptides had not been added, was determined as having neuroprotective action. The results are shown in Table 1 and Table 2. β-amyloid was added to PC12 cells that had been cultured similarly to Example 5. At this time, neuropeptides PACAP27, VIP and humanin, and a cell-permeable cAMP derivative were allowed to respectively co-exist, so that the effect of these neuropeptides against cell death by β-amyloid was confirmed. Cell death was examined by evaluating cell count using the WST-8 method, and then by calculating cell survival rate. […] In the presence of β-amyloid, approximately 70% of the cells died. […] The neuroprotective action of humanin, a recently found human-derived neuroprotective substance (Proc Natl Acad Sci USA (2001) 98 (11) 6336-6341), was also examined. […] At this time, neuropeptides at various concentrations were allowed to co-exist, so that the relationship between the neuroprotective action and the concentration was investigated. Cells were calculated by the WST-8 method, and then the extent to which cell death by β-amyloid could be attenuated was expressed numerically.

PC12 cells [2] = assay type: cell-based, rat
PC12 cells [3] = test system: PC12 cells
PC12 cells [4] = experiment: Cell death by β-amyloid monitored by lactate dehydrogenase release; assay type: cell-based, rat; settings: 48 hours, FIG. 3

Molecule: CCCC(=O)Nc1ncnc2c1ncn2[C@@H]1O[C@@H]2COP(=O)(O)O[C@H]2[C@H]1OC(=O)CCC [dibutyryl-cAMP, reference compound]
- effect on caspase-3 activation by β-amyloid (caspase-3; 10^−5 M β-amyloid, cAMP derivative 10^−4 M): significantly attenuated
- neuroprotective action against cell death by β-amyloid (cell survival rate) (PC12 cells [1]; FIG. 5): cell death was very strongly suppressed

Molecule: Pituitary Adenylate Cyclase Activating Polypeptide [PACAP]
- degree of neuroprotective action against abnormal prion (106-126) (PC12 cells [2]; 50 μM abnormal prion (106-126), neuropeptides at various concentrations, FIG. 2): even at an extremely low concentrations, PACAP showed a certain degree of neuroprotective action
- suppressive effect on caspase-3 activation by β-amyloid (caspase-3; 10^−5 M β-amyloid, PACAP 10^−9 M): approximately 50%
- neuroprotective action relative to that of VIP (PC12 cells [1]; β-amyloid, FIG. 6): at least 1×10^4 fold
- relationship between concentration and neuroprotective action against β-amyloid (PC12 cells [1]; β-amyloid, FIG. 6): showed neuroprotective action even at an extremely low concentration
- concentration at which the neuroprotective effect was strongest (PC12 cells [1]; β-amyloid, various concentrations, FIG. 6): 10^−9 to 10^−13 M

Molecule: Prion (106-126)
- cell death (lactate dehydrogenase released to the medium) (PC12 cells [3]): cell death occurs depending on the concentration

Molecule: VIP (HSDAVFTDNYTRLRKQMAVKKYLNSILN) [Peptide 3]
- degree of neuroprotective action against abnormal prion (106-126) (PC12 cells [2]): showed neuroprotective action at concentrations higher than that of PACAP
- Neuroprotective action (PC12 cells [1]; VIP-related neuropeptide 10^−7 M, amyloid (50 μM), cell survival rate vs no peptide): +
- neuroprotective action against cell death by β-amyloid (cell survival rate) (PC12 cells [1]; FIG. 5): showed neuroprotective action against β-amyloid although the effect was weaker than that of PACAP27
- relationship between concentration and neuroprotective action against β-amyloid (PC12 cells [1]; β-amyloid, FIG. 6): showed strong neuroprotective action at relatively high concentrations

Molecule: β-amyloid 1-42
- activity of caspase-3 (caspase-3; addition of 10^−5 M β-amyloid): improved
- cell death by β-amyloid vs control group (PC12 cells [4]; 0.2 μM insulin-containing serum-free DMEM): significant cell death
- cell death by β-amyloid vs control group (PC12 cells [4]; 0.25% horse serum and 0.25% newborn calf serum-containing DMEM): significant cell death
- cell death by β-amyloid vs control group (PC12 cells [4]; 5% horse serum and 5% newborn calf serum-containing DMEM): no cell death
- cells died in the presence of β-amyloid (PC12 cells [1]; β-amyloid alone, WST-8, FIG. 5): approximately 70%

From patent US20040132648A1, “Remedies and/or preventives for conformational diseases” (priority 2001, published 2004)
